Reference: article PMC10975498, “Trimethyltin(IV) Bearing 3-(4-Methyl-2-oxoquinolin-1(2H)-yl)propanoate Causes Lipid Peroxidation-Mediated Autophagic Cell Death in Human Melanoma A375 Cells” (Pharmaceuticals, 2024)

Target: T1, Bovine Serum Albumin (BSA) (Bos taurus, UniProt P02769)
T1 construct: gene ALB
Experiment: spectrofluorometric titration (tryptophan fluorescence quenching, double-log Stern-Volmer) at […] and […] °C; Kb given is at […] °C
Format: binding
Conditions: read-out: spectrofluorometric titration (tryptophan fluorescence quenching, double-log Ste) (converted)

T1 sequence (P02769 25-607): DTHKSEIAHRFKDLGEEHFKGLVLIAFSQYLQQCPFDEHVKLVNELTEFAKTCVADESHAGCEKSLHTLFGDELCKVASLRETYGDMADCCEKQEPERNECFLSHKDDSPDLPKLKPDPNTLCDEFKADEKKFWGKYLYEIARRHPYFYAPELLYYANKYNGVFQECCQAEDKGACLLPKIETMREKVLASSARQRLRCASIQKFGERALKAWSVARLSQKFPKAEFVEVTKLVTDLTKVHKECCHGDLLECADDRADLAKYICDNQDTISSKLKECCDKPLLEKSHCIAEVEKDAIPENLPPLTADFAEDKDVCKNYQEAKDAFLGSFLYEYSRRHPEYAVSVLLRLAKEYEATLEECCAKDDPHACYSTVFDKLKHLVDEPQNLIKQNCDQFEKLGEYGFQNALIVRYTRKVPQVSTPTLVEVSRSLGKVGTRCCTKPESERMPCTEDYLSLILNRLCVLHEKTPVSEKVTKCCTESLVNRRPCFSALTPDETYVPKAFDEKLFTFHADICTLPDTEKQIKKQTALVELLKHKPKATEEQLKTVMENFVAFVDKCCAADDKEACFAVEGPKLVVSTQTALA

Compound `Cc1cc(=O)n(CCC(=O)[O][Sn]([CH3])([CH3])[CH3])c2ccccc12` [Me3SnL, (3-(4-methyl-2-oxoquinolin-1(2H)-yl)propanoato)trimethyltin(IV)] has a Kd of 422 nM.
